Assay results from ChEMBL document CHEMBL1201862, “PubChem BioAssay data set” (2004).
The source made the active and inactive calls.

Tests used:
Cytochrome P450 2C19 = Cytochrome P450 2C19 (Homo sapiens, UniProt P33261); assay: Cytochrome panel assay with activity outcomes. Panel member name: p450-cyp2c19 Compounds with AC50 equal or less than 10 uM are considered active; type: functional
Cytochrome P450 3A4 = Cytochrome P450 3A4 (Homo sapiens, UniProt P08684);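 note: CYP3A4 tested as one member of a cytochrome P450 panel screen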
Cytochrome P450 1A2 = biological target: T1, Cytochrome P450 1A2 (Homo sapiens, UniProt P05177);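 note: PubChem cytochrome P450 panel assay, CYP1A2 panel member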
T1 sequence (P05177 whole entry): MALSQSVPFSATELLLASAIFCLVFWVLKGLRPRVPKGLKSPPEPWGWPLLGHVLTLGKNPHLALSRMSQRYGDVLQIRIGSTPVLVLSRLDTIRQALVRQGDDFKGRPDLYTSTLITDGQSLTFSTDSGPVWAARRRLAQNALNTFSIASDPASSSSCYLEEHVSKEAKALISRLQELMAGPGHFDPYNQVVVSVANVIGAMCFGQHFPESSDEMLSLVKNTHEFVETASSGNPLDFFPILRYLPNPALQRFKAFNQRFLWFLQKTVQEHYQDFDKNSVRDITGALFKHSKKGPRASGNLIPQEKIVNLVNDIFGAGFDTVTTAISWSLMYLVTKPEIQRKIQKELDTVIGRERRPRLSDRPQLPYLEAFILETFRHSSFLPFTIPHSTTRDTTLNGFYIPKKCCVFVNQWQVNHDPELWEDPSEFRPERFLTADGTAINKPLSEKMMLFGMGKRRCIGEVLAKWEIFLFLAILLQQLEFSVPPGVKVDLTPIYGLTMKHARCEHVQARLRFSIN

Cytochrome P450 2C9 = Cytochrome P450 2C9 (Homo sapiens, UniProt P11712)
Streptococcus = assay: Group A Streptococcus viability loss, dose response, counter-screen for streptokinase expression inhibitor project, luminescence, BacTiterGlo (AID 1915); type: functional, organism-based;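 note: potency for reduction of bacterial viability or growth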
[1] = test system: Streptococcus sp. 'group A'; assay: growth inhibition of control SK(-) GAS strain, dose response, counter-screen for streptokinase expression inhibitor project, luminescence, kanamycin, BacTiterGlo, confirmation (AID 1900); type: functional, organism-based
[2] = Luminescence Cell-Based Dose Retest to Confirm Inhibitors of Cancer Stem Cells. [Related pubchem assays (depositor defined):AID2717, AID2721]; type: functional; settings: Homo sapiens
[3] = biological target: T2, Rac GTPase-activating protein 1 (Homo sapiens, UniProt Q9H0H5); assay: MgcRacGAP GTPase-activating activity inhibitors, confirmation, biochemical, ADP Hunter fluorescence, primary and confirmatory (AID 624330); type: functional
T2 sequence (Q9H0H5 whole entry): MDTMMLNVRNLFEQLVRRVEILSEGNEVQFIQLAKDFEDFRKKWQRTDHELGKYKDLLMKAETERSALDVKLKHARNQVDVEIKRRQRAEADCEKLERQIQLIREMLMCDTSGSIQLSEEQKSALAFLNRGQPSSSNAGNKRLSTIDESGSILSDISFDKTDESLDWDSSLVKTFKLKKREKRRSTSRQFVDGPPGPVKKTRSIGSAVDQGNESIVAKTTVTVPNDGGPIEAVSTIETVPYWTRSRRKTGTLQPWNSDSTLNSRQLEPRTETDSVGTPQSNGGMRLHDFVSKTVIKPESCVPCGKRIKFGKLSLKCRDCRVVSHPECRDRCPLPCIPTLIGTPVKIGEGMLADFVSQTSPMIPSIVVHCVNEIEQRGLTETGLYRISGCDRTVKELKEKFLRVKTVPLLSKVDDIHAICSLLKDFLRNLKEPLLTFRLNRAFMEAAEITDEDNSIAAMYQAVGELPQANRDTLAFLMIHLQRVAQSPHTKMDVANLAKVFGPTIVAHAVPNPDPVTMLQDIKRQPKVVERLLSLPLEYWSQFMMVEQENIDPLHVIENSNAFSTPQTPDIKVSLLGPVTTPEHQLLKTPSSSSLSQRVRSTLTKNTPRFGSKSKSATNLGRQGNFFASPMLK

[4] = cytotoxicity toward NIH3T3 fibroblasts, dose response, counter-screen, cell-based, ATP luminescence, mouse fibroblasts (AID 2010); type: functional;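 note: cells exposed to compound for about 90 hours before reading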
[5] = inhibitors of intracellular T. cruzi replication, confirmation, NIH3T3 host cells, beta-gal luminescence (AID 2044); type: functional, cell-based;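 note: intracellular parasites grown in NIH/3T3 mouse fibroblasts as host cells; luminescent beta-galactosidase reporter signal from transgenic T. cruzi replicating inside host cells; inhibitors lower the luminescence signal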

Sequence of Cytochrome P450 3A4 (P08684 whole entry): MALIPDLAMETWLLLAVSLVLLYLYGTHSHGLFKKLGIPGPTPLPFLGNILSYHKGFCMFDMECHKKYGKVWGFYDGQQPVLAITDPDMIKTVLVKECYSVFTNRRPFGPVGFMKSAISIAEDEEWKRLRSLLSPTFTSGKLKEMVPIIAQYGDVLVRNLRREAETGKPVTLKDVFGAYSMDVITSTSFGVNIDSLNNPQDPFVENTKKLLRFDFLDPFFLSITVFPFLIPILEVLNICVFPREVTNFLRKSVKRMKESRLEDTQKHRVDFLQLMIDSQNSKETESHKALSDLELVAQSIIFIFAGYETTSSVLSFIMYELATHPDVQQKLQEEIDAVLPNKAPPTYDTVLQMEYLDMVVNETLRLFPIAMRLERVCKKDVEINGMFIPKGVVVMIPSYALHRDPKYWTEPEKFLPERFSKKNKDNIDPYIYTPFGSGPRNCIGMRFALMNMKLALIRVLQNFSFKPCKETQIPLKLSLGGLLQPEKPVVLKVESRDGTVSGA
Sequence of Cytochrome P450 2C9 (P11712 whole entry): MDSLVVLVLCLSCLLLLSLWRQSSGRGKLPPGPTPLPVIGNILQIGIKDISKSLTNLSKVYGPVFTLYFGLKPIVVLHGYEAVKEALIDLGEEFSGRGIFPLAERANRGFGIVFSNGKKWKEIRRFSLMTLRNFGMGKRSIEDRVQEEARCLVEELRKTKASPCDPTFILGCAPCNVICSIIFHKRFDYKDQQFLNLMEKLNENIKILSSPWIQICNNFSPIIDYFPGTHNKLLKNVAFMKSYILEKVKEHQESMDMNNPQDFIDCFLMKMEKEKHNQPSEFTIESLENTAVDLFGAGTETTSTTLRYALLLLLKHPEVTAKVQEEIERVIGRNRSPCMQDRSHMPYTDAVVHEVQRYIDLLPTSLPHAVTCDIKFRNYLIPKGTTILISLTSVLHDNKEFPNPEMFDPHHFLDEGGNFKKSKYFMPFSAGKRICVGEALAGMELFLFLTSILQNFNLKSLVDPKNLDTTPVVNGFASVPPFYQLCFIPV
Sequence of Cytochrome P450 2C19 (P33261 whole entry): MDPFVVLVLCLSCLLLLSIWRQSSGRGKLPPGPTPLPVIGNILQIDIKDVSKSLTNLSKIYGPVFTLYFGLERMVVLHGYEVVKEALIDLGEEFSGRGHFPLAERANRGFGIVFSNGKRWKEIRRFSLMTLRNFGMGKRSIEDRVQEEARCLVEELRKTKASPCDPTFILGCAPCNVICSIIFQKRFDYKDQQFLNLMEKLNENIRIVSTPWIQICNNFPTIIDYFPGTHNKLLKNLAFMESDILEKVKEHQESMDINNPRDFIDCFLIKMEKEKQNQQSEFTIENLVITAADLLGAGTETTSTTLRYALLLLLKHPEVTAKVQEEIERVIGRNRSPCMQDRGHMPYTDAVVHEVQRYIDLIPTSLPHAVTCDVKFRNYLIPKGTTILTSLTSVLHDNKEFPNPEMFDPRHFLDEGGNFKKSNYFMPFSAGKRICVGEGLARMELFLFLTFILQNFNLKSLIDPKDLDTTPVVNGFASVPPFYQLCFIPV

Which results are given for `Fc1ccc(CSc2nnc(-c3cc4c(s3)-c3ccccc3CC4)o2)cc1`?
AC50 (Cytochrome P450 2C19): inconclusive; AC50 (Cytochrome P450 3A4): 15.8 µM (inconclusive)

For `Cc1nonc1NCn1nnc2ccccc21`, which AC50 (Cytochrome P450 1A2) is on record?
The AC50 was 8.91 µM (inconclusive).

What about the AC50 (Cytochrome P450 2C9) of the same compound?
Its AC50 is 5.01 µM (inconclusive).

What about the AC50 (Cytochrome P450 2C19; read-out: AC50) of the same compound?
The AC50 was 14.1 µM (inconclusive).

Which results are given for `CCc1c(C2(O)CCCCC2)[nH]c2c(C(=O)OC)cc(Cl)cc12`?
EC50 (Streptococcus): 5.96 µM (active); EC50 [1]: 2.62 µM (active); AC50 [2]: 1.89 µM (active)

With `COC(=O)CSc1ccc(C#N)c(SCC(=O)OC)c1` as the compound, how does the AC50 (Cytochrome P450 2C9) read?
Its AC50 is 20 µM (inconclusive).

With `COc1cccc(Cn2c(=O)c(-c3cccs3)nc3cnc(OCc4ccccc4)nc32)c1` as the compound, how does the AC50 (Cytochrome P450 1A2) read?
The AC50 was 1.58 µM (inconclusive).

What about the AC50 (Cytochrome P450 2C9) of the same compound?
Its AC50 is 0.631 µM (inconclusive).

What about the AC50 (Cytochrome P450 3A4) of the same compound?
The AC50 was 7.94 µM (inconclusive).

What does the source list for `Cc1nn(C(=O)c2ccco2)c(C)c1Sc1ccccc1`?
AC50 (Cytochrome P450 2C9): 2.24 µM (inconclusive); AC50 (Cytochrome P450 3A4): 39.8 µM (inconclusive)

Which results are given for `CO[C@@H]1COC(=O)C/C=C\[C@@H](C)[C@H](OC)COC(=O)[C@H](COCc2ccccc2)NC(=O)C/C=C\[C@H]1C`?
AC50 (Cytochrome P450 2C19; read-out: AC50): 2 µM (inconclusive); AC50 (Cytochrome P450 3A4): 5.01 µM (inconclusive)

For `O=C(CCN1CCc2ccccc2C1)Nc1ccc(F)cc1`, which AC50 (Cytochrome P450 1A2) is on record?
The AC50 was 0.398 µM (inconclusive).

And the AC50 (Cytochrome P450 3A4)?
The AC50 was 15.8 µM (inconclusive).

What does the source list for `Cc1c(-c2cccc(Cl)c2)nc2ccccc2c1C(=O)OC/C(O)=C(\C#N)c1nc2ccccc2[nH]1`?
EC50 (Streptococcus): 2.6 µM (active); EC50 [1]: 2.23 µM (active); AC50 [2]: 1.75 µM (active)

With `c1ccc(CNc2ncncc2-c2ccoc2)cc1` as the compound, how does the AC50 (Cytochrome P450 2C9) read?
The AC50 was 0.501 µM (inconclusive).

For `COc1ccccc1CN1CCCC2(CCN(C(=O)c3cccn3C)CC2)C1`, which AC50 (Cytochrome P450 3A4) is on record?
The AC50 was 20 µM (inconclusive).

Which AC50 [2] does the source give for `O=C(c1ccc(C#CC2(O)CCCCC2)cc1)N1CCN(C(c2ccccc2)c2ccccc2)CC1` here?
The AC50 was 0.482 µM (active).

With `CN1CCN(c2nc(-c3ccoc3)nc3ccccc23)CC1` as the compound, how does the AC50 (Cytochrome P450 3A4) read?
The AC50 was 20 µM (inconclusive).

For `O=C(CNCC1CCCO1)Nc1ccc(N2CCCCCC2)cc1` (centres undefined), which IC50 [3] is on record?
The IC50 was 62.7 µM (active).

For `O=c1c(-c2cc(F)cc(F)c2)nc2cncnc2n1-c1ccccc1`, which AC50 (Cytochrome P450 2C9) is on record?
Its AC50 is 10 µM (inconclusive).

What about the AC50 (Cytochrome P450 2C19; read-out: AC50) of the same compound?
The AC50 was 6.31 µM (inconclusive).

Which IC50 [3] does the source give for `O=C(CCN1CCCCCC1)Nc1ccc2c(c1)OCCO2` here?
Its IC50 is 338 µM (active).

With `Cc1cccc(-n2cc(CN(C)Cc3nccn3C)c(-c3cccc(F)c3)n2)c1` as the compound, how does the EC50 [4] read?
The EC50 was 11.8 µM (active).

What about the EC50 [5] of the same compound?
The EC50 was 1.79 µM (active).

And the AC50 [2]?
Its AC50 is 13.5 µM (active).

Which AC50 (Cytochrome P450 2C9) does the source give for `CC1(C)CCCN(C(=O)N2c3ccccc3Sc3ccccc32)C1` here?
The AC50 was 15.8 µM (inconclusive).

For `CCn1c(-c2ccccc2)cnc1S`, which EC50 (Streptococcus) is on record?
The EC50 was > 150 µM (not active).

What about the EC50 [1] of the same compound?
The EC50 was > 150 µM (not active).

For `CCCc1[nH]c2ccc(C#N)cc2c1CCC`, which AC50 [2] is on record?
The AC50 was 4.21 µM (active).

For `COc1ccccc1-c1nc(N2CCN(C)CC2)c2ccccc2n1`, which AC50 (Cytochrome P450 3A4) is on record?
The AC50 was 31.6 µM (inconclusive).

Which AC50 (Cytochrome P450 3A4) does the source give for `COc1ccc(-c2nc3cnc(OC)nc3n(C3CC3)c2=O)cc1` here?
The AC50 was 0.0501 µM (inconclusive).

For `CCOC(=O)c1c(NC(=O)Nc2ccccc2)sc(C)c1C`, which AC50 (Cytochrome P450 3A4) is on record?
The AC50 was 25.1 µM (inconclusive).
